# What was measured:
# Type in all cases: functional
# Pseudomonas aeruginosa = test: Antibacterial activity against Pseudomonas aeruginosa MTCC 2453 after 24 hrs by well diffusion method; settings: MTCC 2453, 24 h
# Escherichia coli = test: Antibacterial activity against Escherichia coli MTCC 739 after 24 hrs by well diffusion method; settings: MTCC 739, 24 h
# Staphylococcus aureus [1] = test: Bactericidal activity against Staphylococcus aureus MLS16 MTCC 2940 after 24 hrs by serial dilution method; settings: MLS16 MTCC 2940, 24 h
# Staphylococcus aureus [2] = test: Antibacterial activity against Staphylococcus aureus MLS16 MTCC 2940 after 24 hrs by well diffusion method; settings: MLS16 MTCC 2940, 24 h
# Staphylococcus aureus [3] = test: Antibacterial activity against Staphylococcus aureus MTCC 96 after 24 hrs by well diffusion method; settings: MTCC 96, 24 h
# Micrococcus luteus [4] = test: Antibacterial activity against Micrococcus luteus MTCC 2470 after 24 hrs by well diffusion method; settings: MTCC 2470, 24 h
# Bacillus subtilis [5] = test: Bactericidal activity against Bacillus subtilis MTCC 121 after 24 hrs by serial dilution method; settings: MTCC 121, 24 h
# Bacillus subtilis [6] = test: Antibacterial activity against Bacillus subtilis MTCC 121 after 24 hrs by well diffusion method; settings: MTCC 121, 24 h
# Micrococcus luteus [7] = test: Bactericidal activity against Micrococcus luteus MTCC 2470 after 24 hrs by serial dilution method; settings: MTCC 2470, 24 h
# Staphylococcus aureus [8] = test: Bactericidal activity against Staphylococcus aureus MTCC 96 after 24 hrs by serial dilution method; settings: MTCC 96, 24 h
# Raoultella planticola = test: Antibacterial activity against Klebsiella planticola MTCC 530 after 24 hrs by well diffusion method; settings: MTCC 530, 24 h
# Staphylococcus aureus [9] = test: Ratio of MBC to MIC for Staphylococcus aureus MLS16 MTCC 2940
# Bacillus subtilis [10] = test: Antibiofilm activity against Bacillus subtilis MTCC 121 after 24 hrs by crystal violet staining based assay; settings: MTCC 121, 24 h
# Staphylococcus aureus [11] = test: Antibiofilm activity against Staphylococcus aureus MLS16 MTCC 2940 after 24 hrs by crystal violet staining based assay; settings: MLS16 MTCC 2940, 24 h
# Micrococcus luteus [12] = test: Antibiofilm activity against Micrococcus luteus MTCC 2470 after 24 hrs by crystal violet staining based assay; settings: MTCC 2470, 24 h
# Bacillus subtilis [13] = test: Ratio of MBC to MIC for Bacillus subtilis MTCC 121
# Staphylococcus aureus [14] = test: Antibiofilm activity against Staphylococcus aureus MTCC 96 after 24 hrs by crystal violet staining based assay; settings: MTCC 96, 24 h
# Staphylococcus aureus [15] = test: Ratio of MBC to MIC for Staphylococcus aureus MTCC 96
# Micrococcus luteus [16] = test: Ratio of MBC to MIC for Micrococcus luteus MTCC 2470
MIC (Pseudomonas aeruginosa) [µg/mL],MIC (Escherichia coli) [µg/mL],MIC (Staphylococcus aureus [2]) [µg/mL],MIC (Staphylococcus aureus [3]) [µg/mL],MIC (Micrococcus luteus [4]) [µg/mL],MIC (Bacillus subtilis [6]) [µg/mL],IC50 (Bacillus subtilis [10]) [µg/mL],IC50 (Staphylococcus aureus [11]) [µg/mL],IC50 (Micrococcus luteus [12]) [µg/mL],IC50 (Staphylococcus aureus [14]) [µg/mL],Compound,MBC (Staphylococcus aureus [1]) [µg/mL],MBC (Bacillus subtilis [5]) [µg/mL],MBC (Micrococcus luteus [7]) [µg/mL],MBC (Staphylococcus aureus [8]) [µg/mL],MIC (Raoultella planticola) [µg/mL],Ratio (Staphylococcus aureus [9]),Ratio (Bacillus subtilis [13]),Ratio (Staphylococcus aureus [15]),Ratio (Micrococcus luteus [16])
> 125,> 125,15.6,15.6,15.6,31.2,–,–,–,–,COc1ccc(N2C=Nc3c(c(=O)n(C)c(=O)n3C)C2c2cn(-c3ccccc3)nc2-c2cccs2)cc1 (centres undefined),31.2,31.2,15.6,31.2,> 125,–,–,–,–
> 125,> 125,15.6,7.8,7.8,7.8,3.6,8.2,3.3,4.2,Cc1ccc(-c2nn(-c3ccccc3)cc2C2c3c(n(C)c(=O)n(C)c3=O)N=CN2c2ccc(C)cc2)cc1 (centres undefined),15.6,31.2,15.6,15.6,> 125,2,2,2,2
> 125,> 125,> 125,> 125,> 125,> 125,–,–,–,–,Cn1c2c(c(=O)n(C)c1=O)C(c1cn(-c3ccccc3)nc1-c1cccs1)N(c1cccc([N+](=O)[O-])c1)C=N2 (centres undefined),–,–,–,–,> 125,–,–,–,–
> 125,> 125,> 125,> 125,> 125,> 125,–,–,–,–,Cn1c2c(c(=O)n(C)c1=O)C(c1cn(-c3ccccc3)nc1-c1ccc(Cl)cc1)N(c1cccc([N+](=O)[O-])c1)C=N2 (centres undefined),–,–,–,–,> 125,–,–,–,–
> 125,> 125,> 125,> 125,> 125,> 125,–,–,–,–,Cn1c2c(c(=O)n(C)c1=O)C(c1cn(-c3ccccc3)nc1-c1ccccc1)N(c1ccc(Cl)cc1)C=N2 (centres undefined),62.5,62.5,31.2,62.5,> 125,–,–,–,–
> 125,> 125,15.6,15.6,7.8,31.2,–,–,–,–,COc1ccc(N2C=Nc3c(c(=O)n(C)c(=O)n3C)C2c2cn(-c3ccccc3)nc2-c2ccc(Cl)cc2)cc1 (centres undefined),15.6,31.2,15.6,31.2,> 125,2,2,–,–
> 125,> 125,> 125,> 125,> 125,> 125,–,–,–,–,Cn1c2c(c(=O)n(C)c1=O)C(c1cn(-c3ccccc3)nc1-c1ccc(Cl)cc1)N(c1ccccc1)C=N2 (centres undefined),–,–,–,–,> 125,–,–,–,–
> 125,> 125,15.6,15.6,15.6,31.2,–,–,–,–,Cc1ccc(N2C=Nc3c(c(=O)n(C)c(=O)n3C)C2c2cn(-c3ccccc3)nc2-c2cccs2)cc1 (centres undefined),31.2,31.2,31.2,31.2,> 125,–,–,–,–
> 125,> 125,> 125,> 125,> 125,> 125,–,–,–,–,Cc1ccc(N2C=Nc3c(c(=O)n(C)c(=O)n3C)C2c2cn(-c3ccccc3)nc2-c2ccccc2)cc1 (centres undefined),–,–,–,–,> 125,–,–,–,–
> 125,> 125,15.6,31.2,7.8,62.5,–,–,–,–,Cn1c2c(c(=O)n(C)c1=O)C(c1cn(-c3ccccc3)nc1-c1ccccc1)N(c1ccccc1)C=N2 (centres undefined),–,–,–,–,> 125,–,–,–,–
> 125,> 125,> 125,> 125,> 125,> 125,–,–,–,–,Cc1ccc(-c2nn(-c3ccccc3)cc2C2c3c(n(C)c(=O)n(C)c3=O)N=CN2c2ccccc2)cc1 (centres undefined),–,–,–,–,> 125,–,–,–,–
> 125,> 125,> 125,> 125,> 125,> 125,–,–,–,–,Cn1c2c(c(=O)n(C)c1=O)C(c1cn(-c3ccccc3)nc1-c1ccc(Cl)cc1)N(c1ccc(Cl)cc1)C=N2 (centres undefined),–,–,–,–,> 125,–,–,–,–

# — ChEMBL document CHEMBL3997821, “Design, synthesis and evaluation of novel pyrazolo-pyrimido[4,5-d]pyrimidine derivatives as potent antibacterial and biofilm inhibitors” (Bioorg Med Chem Lett, 2017)
